Measured values published in ChEMBL document CHEMBL2073822, “cDNA sequence, transport function, and genomic organization of human OCTN2, a new member of the organic cation transporter family” (Biochem Biophys Res Commun, 1998).

Columns and labels:
[1] = biological target: T1, Organic cation/carnitine transporter 2 (Homo sapiens, UniProt O76082); experiment: TP_TRANSPORTER: inhibition of TEA uptake (TEA: 20 uM, Amphetamine: 5000 uM) in OCTN2-expressing HeLa cells; format: functional, cell-based
T1 sequence (O76082 whole entry): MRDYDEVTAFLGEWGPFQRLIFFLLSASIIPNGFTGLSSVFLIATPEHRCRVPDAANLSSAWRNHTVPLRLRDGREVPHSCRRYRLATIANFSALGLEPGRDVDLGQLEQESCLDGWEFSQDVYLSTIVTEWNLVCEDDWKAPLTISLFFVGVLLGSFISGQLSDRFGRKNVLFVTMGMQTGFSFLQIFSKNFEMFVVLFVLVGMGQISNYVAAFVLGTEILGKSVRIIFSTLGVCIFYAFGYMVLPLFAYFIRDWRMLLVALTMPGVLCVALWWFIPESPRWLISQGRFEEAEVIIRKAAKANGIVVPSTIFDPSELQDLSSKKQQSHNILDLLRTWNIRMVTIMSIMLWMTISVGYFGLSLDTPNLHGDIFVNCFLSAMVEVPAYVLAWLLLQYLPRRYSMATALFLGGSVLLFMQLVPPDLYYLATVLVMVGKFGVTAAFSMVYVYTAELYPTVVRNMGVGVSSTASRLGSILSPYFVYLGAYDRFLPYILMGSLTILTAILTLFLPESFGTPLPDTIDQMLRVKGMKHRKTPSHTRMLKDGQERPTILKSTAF

[2] = biological target: T2, OCTN2 (organic cation/carnitine transporter 2) (Homo sapiens, UniProt O76082); experiment: in vitro; settings: HeLa cells that express OCTN2, probe TEA, 20 uM
T2 sequence (O76082 whole entry): T1 sequence (O76082 whole entry)
Description: TP_TRANSPORTER: inhibition of TEA uptake (TEA: 20 uM, Choline: 5000 uM) in OCTN2-expressing HeLa cells

[3] = biological target: T1, Organic cation/carnitine transporter 2; experiment: TP_TRANSPORTER: inhibition of TEA uptake (TEA: 20 uM, Guanidine: 5000 uM) in OCTN2-expressing HeLa cells; format: functional, cell-based
[4] = biological target: T2, OCTN2 (organic cation/carnitine transporter 2); experiment: in vitro; settings: HeLa cells that express OCTN2, probe TEA, 20 uM; remark: listed apart in the source
Description: TP_TRANSPORTER: inhibition of TEA uptake (TEA: 20 uM, Cimetidine: 5000 uM) in OCTN2-expressing HeLa cells

[5] = biological target: T2, OCTN2 (organic cation/carnitine transporter 2); experiment: in vitro; settings: HeLa cells that express OCTN2, probe TEA, 20 uM; remark: listed apart in the source
Description: TP_TRANSPORTER: inhibition of TEA uptake (TEA: 20 uM, Nicotine: 5000 uM) in OCTN2-expressing HeLa cells

[6] = biological target: T2, OCTN2 (organic cation/carnitine transporter 2); experiment: TP_TRANSPORTER: inhibition of TEA uptake (TEA: 20 uM, Methamphetamine: 5000 uM) in OCTN2-expressing HeLa cells; format: functional, cell-based; parameters: scale not given: the % may be the effect or the level left; settings: HeLa cells that express OCTN2, probe TEA, read-out: Activity
[7] = biological target: T1, Organic cation/carnitine transporter 2; experiment: TP_TRANSPORTER: inhibition of TEA uptake (TEA: 20 uM, MPP+: 5000 uM) in OCTN2-expressing HeLa cells; format: functional, cell-based; parameters: scale not given: the % may be the effect or the level left
[8] = biological target: T2, OCTN2 (organic cation/carnitine transporter 2); experiment: TP_TRANSPORTER: inhibition of TEA uptake (TEA: 20 uM Procainamide: 5000 uM) in OCTN2-expressing HeLa cells; format: functional, cell-based; parameters: scale not given: the % may be the effect or the level left; settings: HeLa cells that express OCTN2, probe TEA, read-out: Activity

With `CC(N)Cc1ccccc1` (stereo not drawn) [AMPHETAMINE] the Activity [1] was “is not an inhibitor [-]”.

`C[N+](C)(C)CCO` [CHOLINE] showed an activity at 5000 µM [2] of 75%.

With `N=C(N)N` [GUANIDINE] the Activity [3] was “is not an inhibitor [-]”.

With `CN/C(=N/CCSCc1nc[nH]c1C)NC#N` [CIMETIDINE] the activity at 5000 µM [4] was 39%.

`CN1CCC[C@H]1c1cccnc1` [NICOTINE] gave an activity at 5000 µM [5] of 44%.

In the case of `CN[C@@H](C)Cc1ccccc1` [METHAMPHETAMINE], the activity at 5000 µM [6] is reported as 66%.

Molecule `C[n+]1ccc(-c2ccccc2)cc1` has an Activity [7] of 39%.

`CCN(CC)CCNC(=O)c1ccc(N)cc1` [PROCAINAMIDE] showed an activity at 5000 µM [8] of 39%.
